The CheMixHub viscosity set

Test: xn = mol fraction of the nth substance listed

COCCOCCOCCOC + CCOC(C)=O
viscosity [mPa·s], 101.3 kPa
Details | 298.15 K | 308.15 K | 318.15 K
x1 = 0.0071 | 0.436 | 0.391 | 0.358
x1 = 0.0233 | 0.454 | 0.406 | 0.369
x1 = 0.0549 | 0.488 | 0.434 | 0.395
x1 = 0.0836 | 0.522 | 0.464 | 0.417
x1 = 0.1198 | 0.564 | 0.498 | 0.447
x1 = 0.1684 | 0.626 | 0.548 | 0.489
x1 = 0.2665 | 0.752 | 0.651 | 0.574
x1 = 0.3217 | 0.833 | 0.717 | 0.624
x1 = 0.3905 | 0.931 | 0.796 | 0.69
x1 = 0.4265 | 0.985 | 0.841 | 0.725
x1 = 0.4683 | 1.058 | 0.895 | 0.769
x1 = 0.522 | 1.141 | 0.963 | 0.823
x1 = 0.5558 | 1.196 | 1.002 | 0.856
x1 = 0.6015 | 1.267 | 1.058 | 0.903
x1 = 0.6458 | 1.34 | 1.119 | 0.949
x1 = 0.725 | 1.479 | 1.223 | 1.028
x1 = 0.741 | 1.504 | 1.244 | 1.045
x1 = 0.7798 | 1.572 | 1.297 | 1.085
x1 = 0.8318 | 1.616 | 1.366 | 1.139
x1 = 0.8823 | 1.754 | 1.433 | 1.194
x1 = 0.9348 | 1.846 | 1.51 | 1.247
x1 = 0.9606 | 1.89 | 1.542 | 1.276

C1COCCOCCOCCOCCO1 + O
101 kPa
Details | viscosity [mPa·s]
293.15 K, x1 = 0.0006204 | 1.026
293.15 K, x1 = 0.001402 | 1.056
293.15 K, x1 = 0.00196 | 1.077
293.15 K, x1 = 0.002451 | 1.096
293.15 K, x1 = 0.002972 | 1.116
293.15 K, x1 = 0.003463 | 1.135
298.15 K, x1 = 0.0008458 | 0.9177
298.15 K, x1 = 0.001528 | 0.94
298.15 K, x1 = 0.002266 | 0.9641
298.15 K, x1 = 0.002834 | 0.9822
298.15 K, x1 = 0.003303 | 0.9976
298.15 K, x1 = 0.003773 | 1.013
303.15 K, x1 = 0.0006643 | 0.8159
303.15 K, x1 = 0.001358 | 0.835
303.15 K, x1 = 0.002066 | 0.8548
303.15 K, x1 = 0.003143 | 0.8854
303.15 K, x1 = 0.00351 | 0.8952
303.15 K, x1 = 0.003848 | 0.9049
308.15 K, x1 = 0.0008516 | 0.7393
308.15 K, x1 = 0.001375 | 0.7519
308.15 K, x1 = 0.001712 | 0.7607
308.15 K, x1 = 0.00238 | 0.7764
308.15 K, x1 = 0.003105 | 0.7938
308.15 K, x1 = 0.003675 | 0.8069
